In PubChem BioAssay (NCI):
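Briefly, cells in 96-well plates were exposed to five compound concentrations for 48 h, and endpoints were estimated by linear interpolation. Here, GI50 denotes the concentration required for 50% inhibition of growth. TGI denotes the concentration required for complete inhibition of growth.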

Key:
Test in all cases: NCI tumour cell line growth inhibition, 48 h
SW-620 colon = test system: SW-620 colon
UACC-62 melanoma = test system: UACC-62 melanoma
HOP-92 NSCLC = test system: HOP-92 NSCLC
HOP-62 NSCLC = test system: HOP-62 NSCLC
SF-268 CNS = test system: SF-268 CNS
SN12C renal = test system: SN12C renal
OVCAR-5 ovarian = test system: OVCAR-5 ovarian
MALME-3M melanoma = test system: MALME-3M melanoma
786-0 renal = test system: 786-0 renal
UO-31 renal = test system: UO-31 renal

## CC1(C)CC[C@H](Nc2ncc(C(F)(F)F)c(-c3c[nH]c4c(P(C)(C)=O)c(C#N)ccc34)n2)CN1
SW-620 colon
  GI50: 0.0225 µM
  TGI: 13.2 µM
UACC-62 melanoma
  GI50: < 0.01 µM
  TGI: 2.19 µM
HOP-92 NSCLC
  GI50: 0.345 µM
  TGI: 28.8 µM
HOP-62 NSCLC
  GI50: 0.0132 µM
  TGI: 6.69 µM
SF-268 CNS
  GI50: 1.17 µM
  TGI: 12.9 µM
SN12C renal
  GI50: 0.141 µM
  TGI: 32.2 µM
OVCAR-5 ovarian
  GI50: 0.144 µM
  TGI: > 37.7 µM
MALME-3M melanoma
  GI50: < 0.0128 µM
  TGI: 13 µM
786-0 renal
  GI50: 0.201 µM
  TGI: 19.2 µM
UO-31 renal
  GI50: 0.377 µM
  TGI: 5.11 µM

## Cc1ccc(S(=O)(=O)NCCNC2=CC(=O)c3nc4ccccc4c4ccnc2c34)cc1
SW-620 colon
  GI50: 19.6 µM
  TGI: 97.2 µM
UACC-62 melanoma
  GI50: 20.6 µM
  TGI: 44.5 µM
HOP-92 NSCLC
  GI50: 20.3 µM
  TGI: 55.7 µM
HOP-62 NSCLC
  GI50: 20.6 µM
  TGI: 61.3 µM
SF-268 CNS
  GI50: 19.1 µM
  TGI: 52.3 µM
SN12C renal
  GI50: 17.8 µM
  TGI: 39.6 µM
OVCAR-5 ovarian
  GI50: 25 µM
  TGI: 65.4 µM
MALME-3M melanoma
  GI50: 20.5 µM
  TGI: 54.5 µM
786-0 renal
  GI50: 20.6 µM
  TGI: 50.2 µM
UO-31 renal
  GI50: 24.3 µM
  TGI: > 100 µM

## Cc1ccc(-c2cc(-c3ccco3)c(C#N)c(=O)[nH]2)cc1
SW-620 colon
  TGI: > 100 µM
UACC-62 melanoma
  TGI: > 100 µM
HOP-92 NSCLC
  TGI: > 100 µM
HOP-62 NSCLC
  TGI: > 100 µM
SF-268 CNS
  TGI: > 100 µM
SN12C renal
  TGI: > 100 µM
OVCAR-5 ovarian
  TGI: > 100 µM
MALME-3M melanoma
  TGI: > 100 µM
786-0 renal
  TGI: > 100 µM
UO-31 renal
  TGI: > 100 µM

## NC1CCCCC1.[O]=[Ge].[O]=[Ge].[O]=[Ge][OH].[O]=[Ge][OH]
SW-620 colon
  TGI: > 100 µM
UACC-62 melanoma
  TGI: > 100 µM
HOP-92 NSCLC
  TGI: > 100 µM
HOP-62 NSCLC
  TGI: > 100 µM
SF-268 CNS
  TGI: > 100 µM
SN12C renal
  TGI: > 100 µM
OVCAR-5 ovarian
  TGI: > 100 µM
MALME-3M melanoma
  TGI: > 100 µM
786-0 renal
  GI50: > 100 µM
  TGI: > 100 µM
UO-31 renal
  GI50: > 100 µM
  TGI: > 100 µM

## C1C[OH+]CC[OH+]CCNCC[OH+]CC[OH+]CCN1.[Cl-].[Pt+4]
SW-620 colon
  GI50: 57.3 µM
  TGI: > 100 µM
UACC-62 melanoma
  GI50: 91.9 µM
  TGI: > 100 µM
HOP-92 NSCLC
  GI50: > 100 µM
  TGI: > 100 µM
HOP-62 NSCLC
  GI50: > 100 µM
  TGI: > 100 µM
SF-268 CNS
  GI50: > 100 µM
  TGI: > 100 µM
SN12C renal
  GI50: > 100 µM
  TGI: > 100 µM
OVCAR-5 ovarian
  GI50: > 100 µM
  TGI: > 100 µM
MALME-3M melanoma
  GI50: > 100 µM
  TGI: > 100 µM
786-0 renal
  GI50: > 100 µM
  TGI: > 100 µM
UO-31 renal
  GI50: > 100 µM
  TGI: > 100 µM

## Cc1c(S(C)(=O)=O)c(-c2cc(F)cc(N3CCN(c4ccc(NS(=O)(=O)c5ccc(N[C@H](CCN6CCC(C(=O)OCCCP(=O)(O)O)CC6)CSc6ccccc6)c(S(=O)(=O)C(F)(F)F)c5)cc4)CC3)c2)c(-c2ccc(Cl)cc2)n1C(C)C
SW-620 colon
  GI50: > 100 µM
  TGI: > 100 µM
UACC-62 melanoma
  GI50: > 100 µM
  TGI: > 100 µM
HOP-92 NSCLC
  GI50: 0.0794 µM
  TGI: 0.952 µM
HOP-62 NSCLC
  GI50: > 100 µM
  TGI: > 100 µM
SF-268 CNS
  GI50: > 100 µM
  TGI: > 100 µM
SN12C renal
  GI50: > 100 µM
  TGI: > 100 µM
OVCAR-5 ovarian
  GI50: > 100 µM
  TGI: > 100 µM
MALME-3M melanoma
  GI50: > 100 µM
  TGI: > 100 µM
786-0 renal
  GI50: > 100 µM
  TGI: > 100 µM
UO-31 renal
  GI50: > 100 µM
  TGI: > 100 µM

## CC(=O)NNc1nc(C)c(C(=O)NNC(=O)C(=O)Nc2c(C)cccc2C)s1
SW-620 colon
  TGI: > 100 µM
UACC-62 melanoma
  TGI: > 100 µM
HOP-92 NSCLC
  TGI: > 100 µM
HOP-62 NSCLC
  TGI: > 100 µM
SF-268 CNS
  TGI: > 100 µM
SN12C renal
  TGI: > 100 µM
OVCAR-5 ovarian
  TGI: > 100 µM
MALME-3M melanoma
  TGI: > 100 µM
786-0 renal
  TGI: > 100 µM
UO-31 renal
  TGI: > 100 µM
